# Reference: US8084621B2, “3-Pyrrolo[b]cyclohexylene-2-dihydroindolinone derivatives and uses thereof” (Jiangsu Simcere Pharmaceutical R&D Co. Ltd., priority 2006, dated 2011)
# Target: T1, c-Kit (Homo sapiens, UniProt P10721)
# T1 construct: purchased Cell Signaling Technology CO
# Test: Protein kinase activity by ELISA in vitro, c-Kit
# Format: biochemical
# Conditions: concentration of 10^−7 mol/L; read-out: kinase inhibition ratio, c-Kit
# Source text: (§1) An ELISA (Enzyme-Linked Immunosorbent Sandwich Assay) procedure may be used to detect and measure the level of protein tyrosine kinase activity. Tyrosine kinases such as VEGFR-2, PDGFR-β and c-Kit etc. catalyze the phosphorylation reaction of ATP and biotin-labeled peptide substrate, which will be ceased when the kinase activity is inhibited. According to the principle of ELISA, a monoclonal antibody can react with phosphorylated substrate specially, so biotin-labeled substrate is binded to streptavidin-coated ELISA plate, and then binded to a HRP-labeled goat anti-mouse antibody. Finally TMB is added for a color reaction and the value of A450-A630 is read by ELISA plate reader. The OD value can reflect the inhibitory activity of the VEGFR-2, PDGFR-β, c-Kit tyrosine kinases etc. treated with the test compounds at the different concentrations. So, the assay may be used to measure the inhibition ratio of the compounds for the tyrosine kinase activity. Similar assays can be designed along the same lines for any PK using techniques well known in the art.
# as §1, with “Tyrosine” for “An ELISA (Enzyme-Linked Immunosorbent Sandwich Assay) procedure may be used to detect and measure the level of protein tyrosine kinase activity. Tyrosine”, “PDGFR-β” for “PDGFR-β,”, “kinases” for “kinases etc.”
# VEGF Receptor 2, PDGF Receptor-beta and c-kit kinase assay kit (include kinase, 1.25M DTT, substrate peptide, 10 mM ATP, P-Tyr-100 Mouse antibody, 4×HTScan tyrosine kinase buffer), Cell Signaling Technology CO.; HRP labeled goat anti mouse IgG, Protein Tech CO.; TMB, Pierce CO.; Streptavidin Microtitration Plate, Greiner Bio-one CO.; Infinite M200 Reader, Tecan CO.
# 1.2.1 Immediately transfer enzyme from −80° C. to ice. Allow enzyme to thaw on ice then at 4° C. and centrifugate transiently to the bottom of centrifuge tube, then lay back on ice quickly
# 1.2.2 Add 10 μl of DTT (1.25 M) to 2.5 ml of 4×HTScan tyrosine kinase buffer (240 mM HEPES pH 7.5, 20 mM MgCl2, 20 mM MnCl2, 12 μM Na3VO4). Transfer 0.6 ml of DTT/Kinase buffer to each enzyme tube to make 4× reaction Cocktail. Incubate 12.5 μl of the 4× reaction cocktail with 12.5 μl/well prediluted compound of interest for 5 minutes at room temperature, and set blank control, free-enzyme control, negative control and positive control. 1.2.3 Add 10 μl 10 mM ATP to 1.25 ml 6 μM substrate peptide. Dilute the mixture with dH20 to 2.5 ml to make 2×ATP/substrate cocktail. Add 25 μl of 2×ATP/substrate cocktail to 25 μl/well preincubated reaction cocktail/compound. Incubate reaction plate at room temperature for 30 minutes. 1.2.4 Add 50 μl/well stop Buffer (50 mM EDTA, pH 8) to stop the reaction. Transfer 25 μl of each reaction and 75 μl dH2O/well to a 96-well streptavidin coated plate and incubate at room temperature for 60 minutes. Wash three times with 200 μl/well PBS/T(1×PBS, 0.05% Tween-20). 1.2.5 Dilute primary antibody, Phospho-Tyrosine mAb (P-Tyr-100), 1:500 in PBS/T with 1% BSA. Add 100 μl/well primary antibody. Incubate at room temperature for 60 minutes. Wash three times with 200 μl/well PBS/T(1×PBS, 0.05% Tween-20). 1.2.6 Prepare appropriate dilution of HRP labeled secondary antibody, 1:500 in PBS/T with 1% BSA. Add 100 μl/well secondary antibody solution. Incubate at room temperature for 30 minutes. […]
# T1 sequence (P10721 26-976): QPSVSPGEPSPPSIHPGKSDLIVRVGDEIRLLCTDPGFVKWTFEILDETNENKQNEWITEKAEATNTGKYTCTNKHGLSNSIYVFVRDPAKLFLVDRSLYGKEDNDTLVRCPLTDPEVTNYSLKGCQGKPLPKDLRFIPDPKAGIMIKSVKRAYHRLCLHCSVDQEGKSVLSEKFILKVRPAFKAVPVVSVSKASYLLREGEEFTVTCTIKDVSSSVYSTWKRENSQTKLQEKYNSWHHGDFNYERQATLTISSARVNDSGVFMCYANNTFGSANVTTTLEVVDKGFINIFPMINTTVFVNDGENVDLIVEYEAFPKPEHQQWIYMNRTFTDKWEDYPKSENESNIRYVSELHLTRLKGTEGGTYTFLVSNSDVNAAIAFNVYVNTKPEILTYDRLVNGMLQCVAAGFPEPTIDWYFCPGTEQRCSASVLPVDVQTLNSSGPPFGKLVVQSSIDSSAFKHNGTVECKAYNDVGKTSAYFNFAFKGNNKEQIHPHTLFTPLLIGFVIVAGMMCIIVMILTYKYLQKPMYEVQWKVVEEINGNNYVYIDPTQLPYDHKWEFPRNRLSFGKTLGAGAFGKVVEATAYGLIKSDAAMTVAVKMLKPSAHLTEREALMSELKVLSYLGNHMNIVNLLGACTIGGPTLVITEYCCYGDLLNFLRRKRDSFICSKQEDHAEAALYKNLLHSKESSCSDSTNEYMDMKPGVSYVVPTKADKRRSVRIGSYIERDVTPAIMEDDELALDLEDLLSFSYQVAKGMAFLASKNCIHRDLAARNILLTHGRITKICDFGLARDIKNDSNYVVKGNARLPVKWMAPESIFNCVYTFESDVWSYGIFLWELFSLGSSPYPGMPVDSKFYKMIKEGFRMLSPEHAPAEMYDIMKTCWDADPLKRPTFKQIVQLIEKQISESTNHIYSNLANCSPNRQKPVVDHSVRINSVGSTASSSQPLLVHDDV
row,Compound,inhibition at 0.1 µM [%]
1,"CCN(CC)CCNC(=O)c1c(C)[nH]c2c1CCC/C2=C1/C(=O)Nc2ccc(C)cc21 [I-4, N-(2-(diethylamino)ethyl)-2-methyl-7-[1,2-dihydro-5-methyl-2-oxo-3H-indol-(Z)-3-ylidene]-4,5,6,7-tetrahydro-1H-indole-3-carboxamide]",60
2,"Cc1[nH]c2c(c1C(=O)NCCO)CCC/C2=C1/C(=O)Nc2ccccc21 [I-8, N-(2-hydroxyethyl)-2-methyl-7-[1,2-dihydro-2-oxo-3H-indol-(Z)-3-ylidene]-4,5,6,7-tetrahydro-1H-indole-3-carboxamide]",77
3,"Cc1[nH]c2c(c1C(=O)NCC(O)CN1CCCC1)CCC/C2=C1/C(=O)Nc2ccccc21 (stereo not drawn) [I-70, N-(2-hydroxy-3-(pyrrolidin-1-yl)propyl)-2-methyl-7-[1,2-dihydro-2-oxo-3H-indol-(Z)-3-ylidene]-4,5,6,7-tetrahydro-1H-indole-3-carboxamide]",76
4,"CCN(CC)CC(O)CNC(=O)c1c(C)[nH]c2c1CCC/C2=C1/C(=O)Nc2ccccc21 (stereo not drawn) [I-63, N-(3-(diethylamino)-2-hydroxypropyl)-2-methyl-7-[1,2-dihydro-2-oxo-3H-indol-(Z)-3-ylidene]-4,5,6,7-tetrahydro-1H-indole-3-carboxamide]",73

# The remaining lines, values ahead:
row,inhibition at 0.1 µM [%],Compound
1,77,"Cc1[nH]c2c(c1C(=O)NCCN(C)C)CCC/C2=C1/C(=O)Nc2ccc(F)cc21 [I-6, N-(2-(dimethylamino)ethyl)-2-methyl-7-[1,2-dihydro-5-fluoro-2-oxo-3H-indol-(Z)-3-ylidene]-4,5,6,7-tetrahydro-1H-indole-3-carboxamide]"
2,74,"Cc1[nH]c2c(c1C(=O)NCCCN(C)C)CCC/C2=C1/C(=O)Nc2ccc(Cl)cc21 [I-7, N-(3-(dimethylamino)propyl)-2-methyl-7-[1,2-dihydro-5-chloro-2-oxo-3H-indol-(Z)-3-ylidene]-4,5,6,7-tetrahydro-1H-indole-3-carboxamide]"
3,43,"CCN(CC)CCNC(=O)c1c(C)[nH]c2c1CCC/C2=C1/C(=O)Nc2ccc(Cl)cc21 [I-3, N-(2-(diethylamino)ethyl)-2-methyl-7-[1,2-dihydro-5-chloro-2-oxo-3H-indol-(Z)-3-ylidene]-4,5,6,7-tetrahydro-1H-indole-3-carboxamide]"
4,67,"CCN(CC)CCNC(=O)c1c(C)[nH]c2c1CCC/C2=C1/C(=O)Nc2ccccc21 [I-5, N-(2-(diethylamino)ethyl)-2-methyl-7-[1,2-dihydro-2-oxo-3H-indol-(Z)-3-ylidene]-4,5,6,7-tetrahydro-1H-indole-3-carboxamide]"
5,46,"CCN(CC)CCNC(=O)c1c(C)[nH]c2c1CCC/C2=C1/C(=O)Nc2ccc(F)cc21 [I-2, N-(2-(diethylamino)ethyl)-2-methyl-7-[1,2-dihydro-5-fluoro-2-oxo-3H-indol-(Z)-3-ylidene]-4,5,6,7-tetrahydro-1H-indole-3-carboxamide]"
